Reference: publication PMC11594329, “Development of LAT1-Selective Nuclear Medicine Therapeutics Using Astatine-211” (International Journal of Molecular Sciences, 2024)

What was measured:
[1] = test system: LAT1-Tet/HEK293 cells; experiment: Uptake versus LAT1 expression level (Dox-induced) in LAT1-Tet/HEK293 cells; assay type: cell-based; conditions: collection 30 min after treatment
Procedure: Each cell line was seeded in 24 wells at 1 × 10^5 cells/mL and allowed to become sub-confluent on the day of the experiment. Cells were washed with PBS (-) (Fujifilm Wako Pure Chemical, Osaka, Japan) prior to the addition of the compound, which was then replaced with uptake buffer. After treating the cells with the same dose, they were collected at predetermined time points. The cell dose was measured using a γ-counter (Wizard^2 2480; PerkinElmer, Waltham, MA, USA), and the protein content of the sample was determined. Protein content was measured using the BCA method, and the dose was corrected using the protein content (Protein Assay BCA kit, Fujifilm Wako Pure Chemical).
Figure 2 Comparison of uptake between the labeled compounds. (A) Relation between uptake ratio and LAT1 expression level. Uptake ratios were compared between LAT1-Tet/HEK293 cells. The Y-axis represents the uptake ratio, and the X-axis is concentration of Doxycycline (Dox) (TaKaRa Bio, Shiga, Japan). The collection time was 30 min after treatment. The expression of LAT1 increased with increasing amounts of Dox. (B) Comparison of uptake in PANC-1 cell line. The collection times were 0.5, 1, 5 and 10 min after treatment.
The PANC-1 cell line was obtained from the RIKEN Cell Bank and maintained in RPMI 1640 medium (Fujifilm Wako Pure Chemical, Osaka, Japan) supplemented with 10% inactivated fetal bovine serum (Thermo Fisher Scientific, Waltham, MA, USA). Mock/HEK293, LAT1/HEK293, and LAT2/HEK203 cells were kindly provided by Dr. Kanai. Cell lines controlling LAT1 expression were constructed using the Tet-on system. HEK293 cells were obtained from the RIKEN Cell Bank and maintained in E-MEM (Fujifilm Wako Pure Chemical) supplemented with 10% inactivated fetal bovine serum (Thermo Fisher Scientific) and non-essential amino acids (Fujifilm Wako Pure Chemical). The expression vectors were purchased from VectorBuilder, Inc. (Kanagawa, Japan). The purified viral particle genes were transfected into HEK293 cells. Drug selection and cloning of the cell line (Tet-LAT1/HEK293) were performed. […]

[2] = test system: PANC-1 tumor model; experiment: Tissue distribution in nude mice (PANC-1 tumor model); assay type: in vivo, BALB/c nu/nu mice; conditions: nude mice (PANC-1 tumor model)
Procedure: BALB/c nu/nu mice (male, 5 weeks old) were purchased from Japan SLC (Shizuoka, Japan) and subcutaneously transplanted at a density of 1 × 10^7 cells/mouse. PANC-1 cells that reached the logarithmic growth phase were transplanted subcutaneously by mixing a 1 × 10^8 cells/mL cell suspension with an equivalent volume of Matrigel (Corning, Corning, NY, USA) to obtain 1 × 10^7 cells per mouse. Experiments were performed after the size of the transplanted tumor had exceeded 50 mm^3. The doses in the distribution experiments were as follows: ^211At-AAMT-OH-L (0.501 ± 0.011 MBq/mouse, 19.91 ± 0.59 g, n = 3) and ^211At-AAMT-O-Me-L (0.384 ± 0.003 MBq/mouse, 19.18 ± 0.38 g, n = 6 for Table 3), ^211At-AAMT-O-Me-L (158.10 ± 2.94 kBq/mouse, 19.27 ± 0.64 g, n = 6) and ^211At-AAMT-O-Me-D (135.08 ± 2.35 kBq/mouse, 18.64 ± 0.97 g, n = 6), ^211At-AAMT-O-Et-L (0.682 ± 0.011 MBq/mouse, 20.25 ± 1.41 g, n = 6), ^211At-AAMT-O-Pr-L (0.927 ± 0.020 MBq/mouse, 21.74 ± 0.37 g, n = 6).

[3] = Tissue distribution in ICR mice (normal animals); assay type: in vivo
Source text: ICR mice (male, 5 weeks old) were purchased from Japan SLC (Shizuoka, Japan) and acclimated for one week prior to use. The doses in the distribution experiments were as follows: ^211At-AAMT-O-Me-L (0.407 ± 0.005 MBq/mouse, 31.64 ± 0.76 g, n = 6), ^211At-AAMT-O-Me-D (0.351 ± 0.004 MBq/mouse, 31.44 ± 0.94 g, n = 6), ^211At-AAMT-O-Et-L (0.685 ± 0.010 MBq/mouse, 24.14 ± 3.31 g, n = 6), ^211At-AAMT-O-Pr-L (1.09 ± 0.06 MBq/mouse, 26.33 ± 0.39 g, n = 6)

## CCCOc1ccc(C[C@](C)(N)C(=O)O)cc1[211At] [^211At-AAMT-O-Pr-L]
[1]
  Uptake ratio versus LAT1 expression (doxycycline concentration): lower cellular uptake when LAT1 expression increased
[2]; 10 min after injection
  Tissue distribution, Bladder: 18.24 ± 4.50 %ID/g
  Tissue distribution, Blood: 4.33 ± 0.45 %ID/g
  Tissue distribution, Bone: 3.50 ± 0.13 %ID/g
  Tissue distribution, Brain: 1.01 ± 0.04 %ID/g
  Tissue distribution, Cecum: 3.35 ± 0.30 %ID/g
  Tissue distribution, Colon: 4.56 ± 0.31 %ID/g
  Tissue distribution, Heart: 9.66 ± 0.87 %ID/g
  Tissue distribution, Kidney: 10.29 ± 0.97 %ID/g
  Tissue distribution, Liver: 3.67 ± 0.41 %ID/g
  Tissue distribution, Lung: 18.16 ± 1.88 %ID/g
  Tissue distribution, Pancreas: 10.85 ± 1.53 %ID/g
  Tissue distribution, Salivary glands: 11.89 ± 0.06 %ID/g
  Tissue distribution, Small intestine: 6.80 ± 0.63 %ID/g
  Tissue distribution, Spleen: 11.84 ± 1.91 %ID/g
  Tissue distribution, Stomach: 7.31 ± 0.30 %ID/g
  Tissue distribution, Testis: 3.54 ± 0.28 %ID/g
  Tissue distribution, Thyroid: 9.74 ± 0.39 %ID/g
  Tissue distribution, Tumor: 5.91 ± 0.27 %ID/g
[2]; 1 h after injection
  Tissue distribution, Bladder: 18.00 ± 0.97 %ID/g
  Tissue distribution, Blood: 3.09 ± 0.25 %ID/g
  Tissue distribution, Bone: 2.03 ± 0.45 %ID/g
  Tissue distribution, Brain: 0.79 ± 0.13 %ID/g
  Tissue distribution, Cecum: 3.07 ± 1.06 %ID/g
  Tissue distribution, Colon: 3.27 ± 0.46 %ID/g
  Tissue distribution, Heart: 5.39 ± 1.06 %ID/g
  Tissue distribution, Kidney: 5.76 ± 0.67 %ID/g
  Tissue distribution, Liver: 2.41 ± 0.24 %ID/g
  Tissue distribution, Lung: 14.15 ± 1.78 %ID/g
  Tissue distribution, Pancreas: 3.54 ± 0.49 %ID/g
  Tissue distribution, Salivary glands: 20.98 ± 3.26 %ID/g
  Tissue distribution, Small intestine: 5.08 ± 0.53 %ID/g
  Tissue distribution, Spleen: 17.42 ± 6.48 %ID/g
  Tissue distribution, Testis: 3.56 ± 0.41 %ID/g
  Tissue distribution, Thyroid: 16.44 ± 1.16 %ID/g
  Tissue distribution, Tumor: 9.45 ± 0.82 %ID/g
[3]; 1 h after injection
  Tissue distribution, Bladder: 20.82 ± 5.36 %ID/g
  Tissue distribution, Blood: 1.77 ± 0.15 %ID/g
  Tissue distribution, Bone: 1.79 ± 0.12 %ID/g
  Tissue distribution, Brain: 0.25 ± 0.02 %ID/g
  Tissue distribution, Cecum: 1.49 ± 0.14 %ID/g
  Tissue distribution, Colon: 1.35 ± 0.07 %ID/g
  Tissue distribution, Heart: 3.14 ± 0.20 %ID/g
  Tissue distribution, Kidney: 2.25 ± 0.19 %ID/g
  Tissue distribution, Liver: 1.18 ± 0.08 %ID/g
  Tissue distribution, Lung: 6.54 ± 0.34 %ID/g
  Tissue distribution, Pancreas: 2.55 ± 0.60 %ID/g
  Tissue distribution, Salivary glands: 14.23 ± 3.16 %ID/g
  Tissue distribution, Small intestine: 1.83 ± 0.23 %ID/g
  Tissue distribution, Spleen: 4.11 ± 0.11 %ID/g
  Tissue distribution, Stomach: 13.55 ± 2.66 %ID/g
  Tissue distribution, Testis: 3.66 ± 0.14 %ID/g
  Tissue distribution, Thymus: 2.03 ± 0.28 %ID/g
  Tissue distribution, Thyroid: 23.08 ± 3.56 %ID/g
[3]; 3 h after injection
  Tissue distribution, Bladder: 5.37 ± 0.73 %ID/g
  Tissue distribution, Blood: 1.30 ± 0.12 %ID/g
  Tissue distribution, Bone: 1.32 ± 0.12 %ID/g
  Tissue distribution, Brain: 0.16 ± 0.01 %ID/g
  Tissue distribution, Cecum: 1.13 ± 0.25 %ID/g
  Tissue distribution, Colon: 1.29 ± 0.25 %ID/g
  Tissue distribution, Heart: 2.16 ± 0.18 %ID/g
  Tissue distribution, Kidney: 1.93 ± 0.29 %ID/g
  Tissue distribution, Liver: 0.82 ± 0.14 %ID/g
  Tissue distribution, Lung: 5.09 ± 0.43 %ID/g
  Tissue distribution, Pancreas: 1.60 ± 0.31 %ID/g
  Tissue distribution, Salivary glands: 11.39 ± 0.33 %ID/g
  Tissue distribution, Small intestine: 1.92 ± 0.12 %ID/g
  Tissue distribution, Spleen: 3.56 ± 0.54 %ID/g
  Tissue distribution, Stomach: 32.05 ± 3.31 %ID/g
  Tissue distribution, Testis: 2.34 ± 0.42 %ID/g
  Tissue distribution, Thymus: 1.76 ± 0.25 %ID/g
  Tissue distribution, Thyroid: 24.75 ± 3.77 %ID/g
